Experimental data as given in US9447136B2, “Semisynthetic derivatives of Nystatin A1” (BLIRT S.A., priority 2012, dated 2016).

Key:
Experiment in all cases: Antifungal activity in vitro, serial dilution in RPMI 1640
Type in all cases: cell-based
[1] = tested on: Candida glabrata DSM 11226; settings: Table 2A; RPMI 1640, pH 7.0
Procedure, shortened: (§1)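 Optical density at 531 nm served as the growth read-out after serial dilution of compound in RPMI 1640 buffered to pH 7.0 per the NCCLS M27-A2 standard. IC50 values came from concentration–A531 plots (50% of control), MIC values from the lowest concentration holding A531 at no more than 20% of control.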

Candida krusei DSM 6128 = settings: Table 2A; RPMI 1640, pH 7.0
Procedure, shortened: as §1

[2] = tested on: Saccharomyces cerevisiae ATCC 9763; settings: Table 2A; RPMI 1640, pH 7.0; A531 at most 20% of control
Procedure, shortened: as §1

[3] = tested on: Candida albicans ATCC 10231; settings: Table 2A, RPMI 1640, pH 7.0; for Antifungal activity Candida albicans ATCC 10231 IC50: A531 50% of control; for Antifungal activity Candida albicans ATCC 10231 MIC: A531 at most 20% of control
Procedure, shortened: as §1

[4] = tested on: Candida lusitaniae DSM 70102; settings: Table 2A; RPMI 1640, pH 7.0
Procedure, shortened: as §1

[5] = tested on: Candida tropicalis KKP 334; settings: Table 2A; RPMI 1640, pH 7.0
Procedure, shortened: as §1

CC1OC(O[C@H]2/C=C/C=C/C=C/C=C/CC/C=C/C=C/[C@H](C)[C@@H](O)[C@@H](C)[C@H](C)OC(=O)C[C@H](O)C[C@H](O)C[C@H](O)CC[C@@H](O)[C@H](O)CC3(O)C[C@H](O)[C@@H](C(=O)O)[C@H](C2)O3)C(O)C(NC2CC(=O)N(CCN3CCN(C)CC3)C2=O)C1O (some centres unmarked) [Compound N9, N—[N′-2-(4-methylpiperazin-1-yl)ethylsuccinimidyl]nystatin A1]
Antifungal activity Candida glabrata DSM 11226 MIC [1]: 16 µg/mL
Antifungal activity Candida krusei DSM 6128 MIC (Candida krusei DSM 6128): 16 µg/mL
Antifungal activity Saccharomyces cerevisiae ATCC 9763 MIC [2]: 8 µg/mL
Antifungal activity Candida albicans ATCC 10231 IC50 [3]: 5.62 µg/mL
Antifungal activity Candida albicans ATCC 10231 MIC [3]: 8 µg/mL
Antifungal activity Candida lusitaniae DSM 70102 MIC [4]: 4 µg/mL
Antifungal activity Candida tropicalis KKP 334 MIC [5]: 8 µg/mL

CC1OC(O[C@H]2/C=C/C=C/C=C/C=C/CC/C=C/C=C/[C@H](C)[C@@H](O)[C@@H](C)[C@H](C)OC(=O)C[C@H](O)C[C@H](O)C[C@H](O)CC[C@@H](O)[C@H](O)CC3(O)C[C@H](O)[C@@H](C(=O)O)[C@H](C2)O3)C(O)C(NC2CC(=O)N(CCN(C)C)C2=O)C1O (some centres unmarked) [Compound N7, N—[N′-2-(N″,N″-dimethylamino)ethylsuccinimidyl]nystatin A1]
Antifungal activity Candida glabrata DSM 11226 MIC [1]: 8 µg/mL
Antifungal activity Candida krusei DSM 6128 MIC (Candida krusei DSM 6128): 16 µg/mL
Antifungal activity Saccharomyces cerevisiae ATCC 9763 MIC [2]: 8 µg/mL
Antifungal activity Candida albicans ATCC 10231 IC50 [3]: 3.99 µg/mL
Antifungal activity Candida albicans ATCC 10231 MIC [3]: 8 µg/mL
Antifungal activity Candida lusitaniae DSM 70102 MIC [4]: 4 µg/mL
Antifungal activity Candida tropicalis KKP 334 MIC [5]: 8 µg/mL

CCN(CC1(O)OCC(O)C(O)C1O)C1C(O)C(C)OC(OC2C=CC=CC=CC=CCCC=CC=CC(C)C(O)C(C)C(C)OC(=O)CC(O)CC(O)CC(O)CCC(O)C(O)CC3(O)CC(O)C(C(=O)O)C(C2)O3)C1O (centres unmarked) [Compound N29, N-fructosyl-N-ethylnystatin A1]
Antifungal activity Candida glabrata DSM 11226 MIC [1]: 16 µg/mL
Antifungal activity Candida krusei DSM 6128 MIC (Candida krusei DSM 6128): 16 µg/mL
Antifungal activity Saccharomyces cerevisiae ATCC 9763 MIC [2]: 8 µg/mL
Antifungal activity Candida albicans ATCC 10231 IC50 [3]: 3.56 µg/mL
Antifungal activity Candida albicans ATCC 10231 MIC [3]: 8 µg/mL
Antifungal activity Candida lusitaniae DSM 70102 MIC [4]: 8 µg/mL
Antifungal activity Candida tropicalis KKP 334 MIC [5]: 8 µg/mL

N-{3-[3-(imidazo-1-yl)propyl]thioureidyl}nystatin A1 [Compound N20]
Antifungal activity Candida glabrata DSM 11226 MIC [1]: 16 µg/mL
Antifungal activity Candida krusei DSM 6128 MIC (Candida krusei DSM 6128): 16 µg/mL
Antifungal activity Saccharomyces cerevisiae ATCC 9763 MIC [2]: 8 µg/mL
Antifungal activity Candida albicans ATCC 10231 IC50 [3]: 6.47 µg/mL
Antifungal activity Candida albicans ATCC 10231 MIC [3]: 8 µg/mL
Antifungal activity Candida lusitaniae DSM 70102 MIC [4]: 8 µg/mL
Antifungal activity Candida tropicalis KKP 334 MIC [5]: 8 µg/mL

C[C@@H]1[C@H](O)[C@@H](C)/C=C/C=C/CC/C=C/C=C/C=C/C=C/[C@H](O[C@@H]2O[C@H](C)[C@@H](O)[C@H](NC(=S)NCCN3CCCC3)[C@@H]2O)C[C@@H]2O[C@](O)(C[C@@H](O)C[C@@H](O)[C@H](O)CC[C@@H](O)C[C@@H](O)CC(=O)O[C@H]1C)C[C@H](O)[C@H]2C(=O)O [Compound N16, N-{3-[2-(pyrrolidin-1-yl)ethyl]thioureidyl}nystatin A1]
Antifungal activity Candida glabrata DSM 11226 MIC [1]: 8 µg/mL
Antifungal activity Candida krusei DSM 6128 MIC (Candida krusei DSM 6128): 8 µg/mL
Antifungal activity Saccharomyces cerevisiae ATCC 9763 MIC [2]: 4 µg/mL
Antifungal activity Candida albicans ATCC 10231 IC50 [3]: 3.04 µg/mL
Antifungal activity Candida albicans ATCC 10231 MIC [3]: 4 µg/mL
Antifungal activity Candida lusitaniae DSM 70102 MIC [4]: 4 µg/mL
Antifungal activity Candida tropicalis KKP 334 MIC [5]: 4 µg/mL
